Experimental data published in PMC8157947, “Peptidic boronic acids are potent cell-permeable inhibitors of the malaria parasite egress serine protease SUB1” (Proceedings of the National Academy of Sciences of the …, 2021).
Values joined by “and” are separate entries in the source; they are usually repeats but may differ in a detail not shown here. Equal values may be shown once.

Experiments:
[1] = molecular target: T1, recombinant PfSUB1 (rPfSUB1) (Plasmodium falciparum, UniProt Q8I0V0); assay: rPfSUB1 fluorogenic peptide substrate cleavage inhibition assay; assay type: biochemical; details: fluorogenic peptide substrate; mean ± SD of at least three measurements; read-out: IC50 (nM) (rPfSUB1)
T1 construct: Chymotrypsin-treated rPfSUB1 (expressed and purified as described previously); made in house
Text: We previously described the development of a fluorescence-based in vitro assay suitable for the evaluation of substrate-based PfSUB1 inhibitors, using recombinant PfSUB1 (rPfSUB1) and fluorogenic peptide substrates based on cleavage sites within endogenous protein substrates of PfSUB1 ([13], [21]). […] This was perhaps unsurprising due to the high molecular mass and polar nature of these compounds, including the presence of a carboxylic acid moiety that was designed to mimic endogenous PfSUB1 protein substrates by interacting with the basic S’ surface of the PfSUB1 active-site cleft ([16]). Collectively, these features likely rendered the compounds poorly membrane penetrant.
Fluorescence of this peptide is quenched by rhodamine dimerization in the intact substrate but increases upon cleavage at the internal Q-D bond. Chymotrypsin-treated rPfSUB1 (expressed and purified as described previously ([16]) was stored at −80 °C as a 228 U/mL stock in 20 mM Tris–HCl pH 8.2, 150 mM NaCl, 10% glycerol, and diluted for use (1:500 or 1:600) in reaction buffer (20 mM Tris–HCl pH 8.2, 150 mM NaCl, 12 mM CaCl2, 25 mM CHAPS). Peptidic boronic acid inhibitors were dissolved in 100% DMSO at 10 or 20 mM, then further diluted in DMSO to generate stock solutions ranging from 500 to 0.01 μM and then used diluted 1:100 in the enzyme reactions. All reactions were performed in wells of white 96-well microwell plates (Nunc); 50 μL diluted rPfSUB1 was preincubated for 5 min with 1 μL each of the serially diluted boronic acid inhibitors, followed by addition of 50 μL substrate solution (0.1 μM final). Subsequent fluorescence increase was continuously monitored using a SpectraMax M5e plate reader and SoftMax Pro-6.3 software, with readings taken every 5 min for 60 min using excitation and emission values of 552 and 580 nm, respectively. […] All experiments were performed in duplicate.

trypsin = molecular target: T2, trypsin (Bos taurus, UniProt P00760); assay: Trypsin inhibition assay (Boc-QAR-AMC cleavage); assay type: biochemical, bovine
T2 construct: purchased Sigma-Aldrich T1426; host or cells: bovine pancreas
T2 sequence (P00760 24-246): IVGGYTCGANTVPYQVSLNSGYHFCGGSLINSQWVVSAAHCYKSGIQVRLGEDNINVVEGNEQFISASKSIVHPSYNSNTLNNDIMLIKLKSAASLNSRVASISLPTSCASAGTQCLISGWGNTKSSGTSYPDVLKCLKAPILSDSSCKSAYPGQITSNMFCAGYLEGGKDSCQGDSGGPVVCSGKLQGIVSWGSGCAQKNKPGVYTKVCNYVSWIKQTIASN
Procedure: Analytical data are in accor dance with those reported in the literature12.
(+)-Pinanediol (1- am inobenzyl)boronate h ydrochloride 9g
A previousl y reported m ethod was used for the first step of the s ynthesis3.
Phenylm agnesium brom ide 0.7 M (3.1 m L, 2.15 mm ol, 1.2 equiv) was added dropwise at −78°C to a solution of (+)-pinanediol dichloromethyl boronate 24 (470 m g, 1.79 mmol, 1.0 equiv) in anh ydrous dieth yl ether (10 m L). Af ter 15 m in ZnCl2 1 M (1.8 m L, 1.8 mm ol, 1.0 equiv) was slowl y added at this t em perature. T he reaction m ixture was allowed to warm up to room tem perature over 2 hours. The inorganic precipitate was filtered off and the solvents were rem oved in vacuo. The residue was dissolved in pentane, washed with water and dried over Na2SO4. Rem oval of the solvent gives a product which was forwarded to the next step without purification. […]
Assays f or inh ib ition of tr yp s in activity (T PC K trea ted, f rom bovine pa ncreas; Sigm a-Aldrich T 1426) were based on cleavage of the fluorogenic peptide substrate Boc -QAR-AMC (Sigma- Aldrich B4153). which contains the fluorescent 7- am ino-4-m ethyl c oum arin (AMC) group. […] Cleavage of this bond results in release of AMC and i ncreased fluorescence. […]

T1 sequence (Q8I0V0 218-688): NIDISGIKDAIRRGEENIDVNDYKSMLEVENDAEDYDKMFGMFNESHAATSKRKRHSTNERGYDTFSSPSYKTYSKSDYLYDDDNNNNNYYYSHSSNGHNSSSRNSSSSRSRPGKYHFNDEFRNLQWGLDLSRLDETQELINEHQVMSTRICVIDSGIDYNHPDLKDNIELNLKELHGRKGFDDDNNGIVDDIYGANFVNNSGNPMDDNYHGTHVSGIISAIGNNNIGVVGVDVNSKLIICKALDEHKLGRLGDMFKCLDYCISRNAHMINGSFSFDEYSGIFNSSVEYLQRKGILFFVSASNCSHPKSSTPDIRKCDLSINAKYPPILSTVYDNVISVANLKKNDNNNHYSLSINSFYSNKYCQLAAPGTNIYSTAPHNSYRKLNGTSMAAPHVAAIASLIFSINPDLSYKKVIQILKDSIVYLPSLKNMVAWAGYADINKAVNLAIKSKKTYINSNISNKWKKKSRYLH

In the case of CC(=O)NC(C(=O)NC(C(=O)NCC(=O)NC(C)B(O)O)C(C)C)C1CCCC1 (stereo not drawn) [3j], the IC50 [1] is reported as ~5.7 nM and 5.7 nM, the “effect on trypsin activity” value (trypsin; 10 µM) is reported as “no detectable effect” and the IC50 (trypsin; bovine trypsin, Boc-QAR-AMC) is reported as greater than 10 µM.
